This is an account of results in ChEMBL document CHEMBL5390218, “Benzimidazole derivatives as tubulin polymerization inhibitors: Design, synthesis and in vitro cytotoxicity studies” (Bioorg Med Chem Lett, 2023).

The test system of series [1] is HCT-116. As to the kind of experiment: Anticancer activity against human HCT-116 cells assessed as inhibition in cell growth measured after 72 hrs by MTT assay. The class given is functional, cell-based. As to conditions: HCT-116, 72 h.
For series [2], the system named is B16-F10. As to the kind of experiment: Anticancer activity against mouse B16-F10 cells assessed as inhibition in cell growth measured after 72 hrs by MTT assay. The class given is functional, cell-based. The note with it: B16-F10, 72 h. (Formazan colour is commonly taken as a measure of viable cells.)
Series [3] has as its system A549. As to the kind of experiment: Anticancer activity against human A549 cells assessed as inhibition in cell growth measured after 72 hrs by MTT assay. It is filed as functional, cell-based. As to conditions: A549, 72 h.
Series [4] relates to SK-MEL-28. Description: Anticancer activity against human SK-MEL-28 cells assessed as inhibition in cell growth measured after 72 hrs by MTT assay. It is filed as functional, cell-based. As to conditions: SK-MEL-28, 72 h.
Series [5] deals with MCF7. As to the kind of experiment: Anticancer activity against human MCF7 cells assessed as inhibition in cell growth measured after 72 hrs by MTT assay. The class given is functional, cell-based. The note with it: MCF7, 72 h.
Series [6] is described as follows: Cytotoxicity against NRK-52E cells assessed as inhibition in cell growth measured after 72 hrs by MTT assay. It is filed as toxicity, cell-based. As to conditions: rat.

Bounds are passed on as bounds.

Broadly, the IC50 is the concentration at which inhibition is half-maximal.

On to `COc1cc(-c2nc3cc(F)ccc3[nH]2)ccc1OCC(=O)N1CCN(c2ncccn2)CC1`, for which the IC50 is > 20 µM in series [1]; 16.1 µM in series [2]; 14 µM in series [3]; 7.71 µM in series [4]; > 20 µM in series [5]. Moreover, in series [6], the half-inhibitory concentration (IC50) at 72 h is > 100 µM.

Consider `COc1ccc2[nH]c(-c3ccc(OCC(=O)N4CCc5ccccc5C4)c(OC)c3)nc2c1`, for which the IC50 in series [1] is 7.9 µM; in series [2] it was 4.96 µM; in series [3], 8.12 µM; in series [4], 2.95 µM; in series [5], 11 µM. Also, the IC50 at 72 h in series [6] worked out at 20.5 µM.

Take `COc1ccc2[nH]c(-c3ccc(OCC(=O)N4CCc5ccccc54)c(OC)c3)nc2c1`: the half-maximal inhibitory concentration (IC50) in series [1] was 8.39 µM; in series [2], 12.6 µM; in series [3] it was 8.05 µM; in series [4], 3.32 µM; in series [5], 7.78 µM. Besides, the 50% inhibitory concentration (IC50) at 72 h in series [6] is > 100 µM.

`COc1cc(-c2nc3cc(F)ccc3[nH]2)ccc1OCC(=O)N1CCc2ccccc2C1`: the half-maximal inhibitory concentration (IC50) in series [1] was 10.1 µM; in series [2], > 20 µM; in series [3] it was > 20 µM; in series [4], 8.59 µM; in series [5], 14.7 µM. Also, in series [6], the IC50 at 72 h is > 100 µM.

With `COc1cc(-c2nc3cc(C)ccc3[nH]2)ccc1OCC(=O)N1CCOCC1`, the IC50 in series [1], in series [2], in series [3], in series [4] and in series [5] was > 20 µM each time. Also, the IC50 at 72 h in series [6] is > 100 µM.

On to `COc1cc(-c2nc3cc(C)ccc3[nH]2)ccc1OCC(=O)N1CCN(c2ncccn2)CC1`, for which the 50% inhibitory concentration (IC50) in series [1] worked out at 4.7 µM; in series [2], 8.53 µM; in series [3] it was 7.93 µM; in series [4], 5.42 µM; in series [5], 11.8 µM. The IC50 at 72 h in series [6] is > 100 µM.

With `COc1cc(-c2nc3ccccc3[nH]2)ccc1OCC(=O)N1CCCC1`, the half-inhibitory concentration (IC50) in series [1], in series [2], in series [3], in series [4] and in series [5] was > 20 µM each time. The 50% inhibitory concentration (IC50) at 72 h in series [6] was > 100 µM.

With `COc1cc(-c2nc3ccccc3[nH]2)ccc1OCC(=O)N1CCN(c2ncccn2)CC1`, the IC50 in series [1] is > 20 µM; in series [2], > 20 µM; in series [3], > 20 µM; in series [4], 12.2 µM; in series [5], > 20 µM. For the same compound, the IC50 at 72 h in series [6] is > 100 µM.

Take `COc1ccc2[nH]c(-c3ccc(OCC(=O)N4CCN(c5ncccn5)CC4)c(OC)c3)nc2c1`: the IC50 is > 20 µM in series [1]; 12.5 µM in series [2]; 8.35 µM in series [3]; 6.13 µM in series [4]; > 20 µM in series [5]. In series [6], the IC50 at 72 h is > 100 µM.

`COc1cc(-c2nc3cc(F)ccc3[nH]2)ccc1OCC(=O)N1CCCC1`: the IC50 in series [1], in series [2], in series [3], in series [4] and in series [5] was > 20 µM throughout. For the same compound, the IC50 at 72 h in series [6] is > 100 µM.

Regarding `COc1cc(-c2nc3cc(C)ccc3[nH]2)ccc1OCC(=O)N1CCc2ccccc21`, the IC50 in series [1] was > 20 µM; in series [2], 15.6 µM; in series [3], 6.89 µM; in series [4], > 20 µM; in series [5] it was > 20 µM. Besides, the IC50 at 72 h in series [6] is > 100 µM.

As to `COc1cc(-c2nc3cc(C)ccc3[nH]2)ccc1OCC(=O)N1CCCCC1`, the IC50 in series [1], in series [2], in series [3], in series [4] and in series [5] was > 20 µM throughout. Also, the IC50 at 72 h in series [6] was > 100 µM.

With `COc1cc(-c2nc3cc(F)ccc3[nH]2)ccc1OCC(=O)N1CCCCC1`, the IC50 in series [1], in series [2], in series [3], in series [4] and in series [5] was > 20 µM in each case. Also, the IC50 at 72 h in series [6] is > 100 µM.

Take `COC(=O)Nc1nc2cc(C(=O)c3cccs3)ccc2[nH]1` [NOCODAZOLE]: the IC50 in series [1] was 3.5 µM; in series [2], 8.58 µM; in series [3], 5.93 µM; in series [4], 8.59 µM; in series [5], 4.13 µM.

As to `COc1cc(-c2nc3cc(F)ccc3[nH]2)ccc1OCC(=O)N1CCN(C(=O)OC(C)(C)C)CC1`, the IC50 in series [1], in series [2], in series [3], in series [4] and in series [5] was > 20 µM each time. Also, the half-inhibitory concentration (IC50) at 72 h in series [6] is > 100 µM.

For the compound `COc1cc(-c2nc3ccccc3[nH]2)ccc1OCC(=O)N1CCCCC1`, the IC50 in series [1], in series [2], in series [3], in series [4] and in series [5] was > 20 µM throughout. Besides, the 50% inhibitory concentration (IC50) at 72 h in series [6] is > 100 µM.

`COc1ccc2[nH]c(-c3ccc(OCC(=O)N4CCCC4)c(OC)c3)nc2c1`: the IC50 in series [1], in series [2], in series [3], in series [4] and in series [5] was > 20 µM throughout. For the same compound, the IC50 at 72 h in series [6] was > 100 µM.

In the case of `COc1cc(-c2nc3ccccc3[nH]2)ccc1OCC(=O)N1CCc2ccccc21`, the IC50 is > 20 µM in series [1]; > 20 µM in series [2]; > 20 µM in series [3]; 3.82 µM in series [4]; 7.68 µM in series [5]. The IC50 at 72 h in series [6] was > 100 µM.

Take `COc1cc(-c2nc3ccccc3[nH]2)ccc1OCC(=O)N1CCOCC1`: the 50% inhibitory concentration (IC50) in series [1], in series [2], in series [3], in series [4] and in series [5] was > 20 µM throughout. In series [6], the concentration for half-maximal inhibition (IC50) at 72 h was > 100 µM.

For `COc1cc(-c2nc3ccccc3[nH]2)ccc1OCC(=O)N1CCN(C(=O)OC(C)(C)C)CC1`, the 50% inhibitory concentration (IC50) in series [1], in series [2], in series [3], in series [4] and in series [5] was > 20 µM throughout. For the same compound, in series [6], the IC50 at 72 h was > 100 µM.

As to `COc1ccc2[nH]c(-c3ccc(OCC(=O)N4CCOCC4)c(OC)c3)nc2c1`, the concentration for half-maximal inhibition (IC50) in series [1], in series [2], in series [3], in series [4] and in series [5] was > 20 µM throughout. In addition, the half-maximal inhibitory concentration (IC50) at 72 h in series [6] was > 100 µM.

As to `COc1ccc2[nH]c(-c3ccc(OCC(=O)N4CCCCC4)c(OC)c3)nc2c1`, the IC50 in series [1], in series [2], in series [3], in series [4] and in series [5] was > 20 µM in each case. Also, the half-maximal inhibitory concentration (IC50) at 72 h in series [6] was > 100 µM.

With `COc1cc(-c2nc3cc(F)ccc3[nH]2)ccc1OCC(=O)N1CCOCC1`, the 50% inhibitory concentration (IC50) in series [1], in series [2], in series [3], in series [4] and in series [5] was > 20 µM in each case. In addition, the IC50 at 72 h in series [6] is > 100 µM.

`COc1ccc2[nH]c(-c3ccc(OCC(=O)N4CCN(C(=O)OC(C)(C)C)CC4)c(OC)c3)nc2c1`: the half-inhibitory concentration (IC50) in series [1], in series [2], in series [3], in series [4] and in series [5] was > 20 µM throughout. The IC50 at 72 h in series [6] is > 100 µM.

Regarding `COc1cc(-c2nc3ccccc3[nH]2)ccc1OCC(=O)N1CCc2ccccc2C1`, the half-inhibitory concentration (IC50) in series [1], in series [2], in series [3], in series [4] and in series [5] was > 20 µM in each case. The IC50 at 72 h in series [6] is > 100 µM.

Take `COc1cc(-c2nc3cc(C)ccc3[nH]2)ccc1OCC(=O)N1CCCC1`: the half-inhibitory concentration (IC50) in series [1], in series [2], in series [3], in series [4] and in series [5] was > 20 µM in each case. The half-inhibitory concentration (IC50) at 72 h in series [6] is > 100 µM.
